Each block holds one compound with its values, some of them ahead of it.
Experiments:
Assay type in all cases: physicochemical
[1] = Dynamic vapor sorption (DVS Intrinsic, Method D, not dried); design: Hysteresis: unit not given here
Protocol: The samples were not dried prior to analysis. Sorption and desorption data were collected from 5% to 95% RH in 10% RH increments under a nitrogen purge. The equilibrium criteria used for the analyses were 0.001 dm/dt weight change in 5 minutes with a minimum step time of 30 minutes and maximum equilibration time of 180 minutes with a 3 minute data logging interval. Data were not corrected for the initial moisture content of the sample.

[2] = Dehydration of ruxolitinib di-hydrate (resulting solid form)
From the text: Dehydration of ruxolitinib di-hydrate results in the isolation of anhydrous crystalline ruxolitinib free base (Form I) (see table below). Form I is described in more detail in Example 15.

[3] = Dynamic vapor sorption (VTI-SA+, sample pre-dried at 60° C.)
Protocol: The DVS experiment was performed on a VTI-SA+ Vapor Sorption Analyzer from TA Instruments. […] Then the humidity was cycled from 5% RH to 95% RH (adsorption) and back to 5% RH (desorption) with 5% RH interval at a constant temperature of 25° C. The equilibration criteria were 0.010 wt % in 5 minutes with a maximum equilibration time of 180 minutes per step.

[4] = Relative humidity testing (physical stability, XRPD)
From the text: Ruxolitinib di-hydrate was held at select relative humidities to help determine range of physical stability (see table below). The d-hydrate was transferred to a vial, which was then uncapped and placed inside a jar, for a designated time period, containing a saturated aqueous salt solution: […]

[5] = Aqueous solubility of crystalline ruxolitinib di-hydrate; conditions: 20 °C, thermodynamic from solid, 20-25° C.
[6] = Water activity slurry experiments (XRPD of solid phase); conditions: 20 d
Protocol: Limited water activity slurries were conducted utilizing ruxolitinib di-hydrate (see table below). The effect of water activity (aw) on the hydration state of the di-hydrate was investigated through competitive water activity trituration experiments (slurries) in various aqueous solvent mixtures. The resulting solid phase was characterized by XRPD. […] Water activity is also related to relative humidity in that RH %=aw×100. Therefore, it is possible to directly relate the stability of an anhydrous/hydrate system in slurry experiments to solid-state stability. […] The method is particularly valuable when relatively slow kinetics of conversion in the solid state prevents reaching true equilibrium in a reasonable timeframe, since solvent-mediated transformation accelerates the conversion process.

[7] = Solubility of crystalline ruxolitinib di-hydrate in organic solvents; conditions: for solubility: organic solvent or mixture, thermodynamic from solid
From the text: The resulting ruxolitinib free base readily dissolved in the organic solvents.

[8] = Target RH 95.0%, sample RH 95.8%
[9] = Target RH 95.0%, sample RH 94.0%

- Hygroscopicity ([1]; DVS Method D): hygroscopic
- Desorp Mass Change ([1]; Target RH 5.0%, sample RH 5.1%): 5.04%
- Sorp Mass Change ([1]; Target RH 5.0%, sample RH 5.4%): 0.00%
- Hysteresis ([1]; Target RH 15.0%): 9.78
- Sorp Mass Change ([1]; Target RH 15.0%, sample RH 15.6%): 0.06%
- Desorp Mass Change ([1]; Target RH 15.0%, sample RH 16.1%): 9.84%
- Hysteresis ([1]; Target RH 25.0%): 9.94
- Sorp Mass Change ([1]; Target RH 25.0%, sample RH 25.4%): 0.11%
- Desorp Mass Change ([1]; Target RH 25.0%, sample RH 25.9%): 10.05%
- Hysteresis ([1]; Target RH 35.0%): 10.06
- Sorp Mass Change ([1]; Target RH 35.0%, sample RH 35.4%): 0.15%
- Desorp Mass Change ([1]; Target RH 35.0%, sample RH 36.0%): 10.21%
- Hysteresis ([1]; Target RH 45.0%): 10.16
- Sorp Mass Change ([1]; Target RH 45.0%, sample RH 45.5%): 0.19%
- Desorp Mass Change ([1]; Target RH 45.0%, sample RH 46.1%): 10.35%
- Hysteresis ([1]; Target RH 55.0%): 10.21
- Sorp Mass Change ([1]; Target RH 55.0%, sample RH 55.3%): 0.26%
- Desorp Mass Change ([1]; Target RH 55.0%, sample RH 56.1%): 10.47%
- Hysteresis ([1]; Target RH 65.0%): 4.28
- Sorp Mass Change ([1]; Target RH 65.0%, sample RH 65.5%): 6.30%
- Desorp Mass Change ([1]; Target RH 65.0%, sample RH 66.2%): 10.58%
- Hysteresis ([1]; Target RH 75.0%): 3.65
- Sorp Mass Change ([1]; Target RH 75.0%, sample RH 75.3%): 7.04%
- Desorp Mass Change ([1]; Target RH 75.0%, sample RH 76.3%): 10.68%
- Hysteresis ([1]; Target RH 85.0%): 0.79
- Sorp Mass Change ([1]; Target RH 85.0%, sample RH 86.1%): 10.00%
- Desorp Mass Change ([1]; Target RH 85.0%, sample RH 89.4%): 10.79%
- Desorp Mass Change [1, 8]: 10.83%
- Sorp Mass Change [1, 8]: 10.83%
- Additional weight loss ([1]; desorption from 15 to 5% RH): 4.8%
- Weight loss ([1]; desorption from 95 to 15% RH): 1%
- Weight gain ([1]; from 5 to 55% RH): 0.26%
- Weight gain ([1]; from 55 to 95% RH): 10.6%
- Solid form of post DVS sample ([1]; less crystalline than the starting material): Form I
Compound: N#CC[C@H](C1CCCC1)n1cc(-c2ncnc3[nH]ccc23)cn1 [Form I, (R)-3-(4-(7H-pyrrolo[2,3-d]pyrimidin-4-yl)-1H-pyrazol-1-yl)-3-cyclopentylpropanenitrile]

- Result (solid form) ([2]; 42° C. oven, 1 d): Di-
- Result (solid form) ([2]; 50° C., vacuum oven, 1 d): Form I
- Result (solid form) ([2]; 80° C./30 minutes): amorphous
- Result (solid form) ([2]; 110° C./20 minutes): amorphous
- Result (solid form) ([2]; P2O5 jar, RT, 4 d): Form I
- Result (solid form) ([2]; P2O5 jar, RT, 5 d): Form I
- Result (solid form) ([2]; P2O5 jar, RT, 13 d): conversion
- Result (solid form) ([2]; P2O5 jar, RT, 21 d, di-hydrate crystals): Form I
- Result (solid form) ([2]; RT, vacuum oven, 1 d): Form I
- Solid form after DVS (XRPD) ([3]; after cycle 5% RH to 95% RH and back to 5% RH, 25° C.): crystalline ruxolitinib di-hydrate
- Water re-adsorbed ([3]; at 95% RH, 25° C., after pre-drying at 60° C.): 9.6%
- Result (solid form) ([4]; 0% RH, N2, RT, 1 d): Di-hydrate + Form I
- Result (solid form) ([4]; 11% RH, RT, 2 d): Di-hydrate
- Result (solid form) ([4]; 11% RH, RT, 14 d): Di-hydrate
- Result (solid form) ([4]; 33% RH, RT, 2 d): Di-hydrate
- Result (solid form) ([4]; 53% RH, RT, 2 d): Di-hydrate
- Result (solid form) ([4]; 98% RH, RT, 2 d): Di-hydrate
- Result (solid form) ([4]; 98% RH, RT, 4 d): Di-hydrate
- Relative humidity at which the di-hydrate form is physically stable ([4]; during the time tested): above 11 % RH
- Relative humidity of conversion to anhydrous crystalline free base form (Form I) ([4]; undetermined value, during the time tested): below 11 % RH
- solubility ([5]; aqueous buffer, pH 6.0 (PBS)): 17.4 µg/mL
- solubility ([5]; aqueous buffer, pH 6.5 (PBS)): 106 µg/mL
- solubility ([5]; aqueous buffer, pH 7.0 (PBS)): 101 µg/mL
- solubility ([5]; aqueous buffer, pH 7.4 (PBS)): 100 µg/mL
- solubility ([5]; fassif, FeSSIF (pH 6.5)): 112 µg/mL
- solubility ([5]; saline or isotonic, Saline (pH 5.5)): 105 µg/mL
- solubility ([5]; simulated gastric fluid, 0.1N HCl): > 10700 µg/mL
- solubility ([5]; simulated gastric fluid, SGF (pH 1.6)): > 11000 µg/mL
- solubility ([5]; FeSSIF (pH 5.0)): 419 µg/mL
- solubility ([5]; Water): 111 µg/mL
- solubility ([5]; HCl solution, simulated gastric fluid, pH 2.0 (HCl)): 3470 µg/mL
- solubility ([5]; KHP buffer, aqueous buffer, pH 3.0 (KHP)): 1570 µg/mL
- solubility ([5]; KHP buffer, aqueous buffer, pH 5.5 (KHP)): 107 µg/mL
- solubility ([5]; KPH buffer (so in the source), aqueous buffer, pH 4.0 (KPH)): 362 µg/mL
- solubility ([5]; acetate buffer, aqueous buffer, pH 5.5 (Acetate)): 93.5 µg/mL
- solubility ([5]; aqueous KHP solution, aqueous buffer, pH 5.0 (KHP)): 147 µg/mL
- solubility ([5]; aqueous acetate solution, aqueous buffer, pH 4.0 (Acetate)): 186 µg/mL
- solubility ([5]; aqueous acetate solution, aqueous buffer, pH 5.0 (Acetate)): 296 µg/mL
- solubility ([5]; borate buffer, aqueous buffer, pH 8.5 (Borate)): 112 µg/mL
- Sorp Mass Change ([1]; Target RH 5.0%, sample RH 4.8%): 0.0013%
- Desorp Mass Change ([1]; Target RH 5.0%, sample RH 5.6%): 0.0334%
- Hysteresis ([1]; Target RH 15.0%): 0.0528
- Sorp Mass Change ([1]; Target RH 15.0%, sample RH 15.1%): 0.0412%
- Desorp Mass Change ([1]; Target RH 15.0%, sample RH 17.1%): 0.0940%
- Hysteresis ([1]; Target RH 25.0%): 0.0461
- Sorp Mass Change ([1]; Target RH 25.0%, sample RH 25.0%): 0.0707%
- Desorp Mass Change ([1]; Target RH 25.0%, sample RH 25.8%): 0.1168%
- Hysteresis ([1]; Target RH 35.0%): 0.0399
- Sorp Mass Change ([1]; Target RH 35.0%, sample RH 35.0%): 0.0904%
- Desorp Mass Change ([1]; Target RH 35.0%, sample RH 35.9%): 0.1302%
- Hysteresis ([1]; Target RH 45.0%): 0.0378
- Sorp Mass Change ([1]; Target RH 45.0%, sample RH 45.1%): 0.1069%
- Desorp Mass Change ([1]; Target RH 45.0%, sample RH 46.0%): 0.1447%
- Hysteresis ([1]; Target RH 55.0%): 0.0357
- Sorp Mass Change ([1]; Target RH 55.0%, sample RH 55.1%): 0.1214%
- Desorp Mass Change ([1]; Target RH 55.0%, sample RH 56.0%): 0.1572%
- Hysteresis ([1]; Target RH 65.0%): 0.0347
- Sorp Mass Change ([1]; Target RH 65.0%, sample RH 65.1%): 0.1359%
- Desorp Mass Change ([1]; Target RH 65.0%, sample RH 66.0%): 0.1706%
- Hysteresis ([1]; Target RH 75.0%): 0.0311
- Sorp Mass Change ([1]; Target RH 75.0%, sample RH 74.9%): 0.1561%
- Desorp Mass Change ([1]; Target RH 75.0%, sample RH 76.6%): 0.1872%
- Hysteresis ([1]; Target RH 85.0%): 0.0233
- Sorp Mass Change ([1]; Target RH 85.0%, sample RH 84.8%): 0.1882%
- Desorp Mass Change ([1]; Target RH 85.0%, sample RH 87.6%): 0.2115%
- Desorp Mass Change [1, 9]: 0.2343%
- Sorp Mass Change [1, 9]: 0.2343%
- Weight lost upon desorption ([1]; desorption 95 to 5% RH): 0.20%
- Weight gained ([1]; from 5 to 95% relative humidity): 0.23%
- Result (solid form) ([6]; 0.34 aw, 75:25 DMSO/H2O): Di-hydrate
- Result (solid form) ([6]; 0.42 aw, 70:30 DMSO/H2O): Di-hydrate
- Result (solid form) ([6]; 0.68 aw, 50:50 DMSO/H2O): Di-hydrate
- solubility ([7]; acetone): > 500000 µg/mL
- solubility ([7]; ethyl acetate): > 200000 µg/mL
- solubility ([7]; Ethanol (EtOH)): > 500000 µg/mL
- solubility ([7]; Isopropanol (IPA)): > 500000 µg/mL
- solubility ([7]; Methanol (MeOH)): > 500000 µg/mL
- Behaviour of the hydrate in polar solvents ([7]; polar organic solvents): lost crystalline water
Compound: N#CC[C@H](C1CCCC1)n1cc(-c2ncnc3[nH]ccc23)cn1 [Ruxolitinib Di-hydrate, (R)-3-(4-(7H-pyrrolo[2,3-d]pyrimidin-4-yl)-1H-pyrazol-1-yl)-3-cyclopentylpropanenitrile di-hydrate]
- Solid form after pre-dried step ([3]; 60° C. under dry N2 (0% RH) for 1 h): dehydrated to form amorphous ruxolitinib free base

Reference: patent US20250270221A1, “SOLID FORMS OF JAK INHIBITOR AND PROCESS OF PREPARING THE SAME” (Incyte Corporation, priority 2022, published 2025)
